pIC50: −log10 of the molar value.
Tests used:
[1] = biological target: T1, human melatonin 2 receptors (human MT2 receptors) (Homo sapiens, UniProt P49286); assay: Melatonin receptor binding inhibitory test (MT2); conditions: 2-[125I] Iodomelatonin 1 nM solution, membrane fraction of CHO-hMT2 cells, 25° C. for 2.5 hr
T1 construct: expressed in transfected cells
T1 sequence (P49286 1-362): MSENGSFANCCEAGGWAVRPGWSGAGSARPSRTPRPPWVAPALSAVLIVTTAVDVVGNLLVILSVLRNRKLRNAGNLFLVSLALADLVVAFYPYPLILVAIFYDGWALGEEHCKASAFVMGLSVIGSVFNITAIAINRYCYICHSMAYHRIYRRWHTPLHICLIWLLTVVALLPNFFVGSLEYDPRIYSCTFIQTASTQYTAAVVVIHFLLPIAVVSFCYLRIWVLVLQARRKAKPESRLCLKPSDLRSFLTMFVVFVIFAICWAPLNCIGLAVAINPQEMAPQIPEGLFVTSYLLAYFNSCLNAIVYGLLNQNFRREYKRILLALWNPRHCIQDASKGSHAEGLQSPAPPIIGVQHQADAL
Description: Melatonin Receptor Binding Inhibitory Test (2) Preparation of CHO-hMT2 Cells Expressing Human Melatonin 2 Receptors A cDNA fragment (SEQ ID NO: 2) encoding full-length of human melatonin 2 receptors (human MT2 receptors) was incorporated into expression vector pCMV-Script (Stratagene, #212220) to give the plasmid that was pCMV-human MT2 receptors expression vector for animal cell expression. CHO-K1 cells (ATCC, #CCL-61) were plated at the concentration of 1.5×10^5 cells/cm^2 in a 6 well plate (ASAHI TECHNO GLASS), and cultured under the conditions of 37° C., 5% CO2 for 24 hr. For gene transfection, solution obtained by blending pCMV-human MT2 receptors expression vector (1.9 μg), Lipofectamine Transfection Reagent (Invitrogen, #18324-012) (11.3 μL) and Minimum Essential Medium Eagle (MEM) medium (Sigma, M8042) (93.8 μL), and reacting at room temperature for 20 min was added to the cells per one well. The transfected cells were cultured in MEM medium containing 10% FBS (Life Technology) and 300 μg/mL Geneticin (GIBCO, #10131), and the cell line that stably expressed the plasmid gene was selected. By a receptor binding assay using 2-[^125I] […] (3) Preparation of Cellular Membrane Fraction of CHO Cell (CHO-hMelR7 and CHO-hMT2) Stably Expressing Human MT1 and MT2 Receptors CHO-hMelR7 and CHO-hMT2 cells were plated using Cellfactory (Nunc, #170009) under the conditions of 1×10^8 cells/2000 mL/flask. The cells were grown to confluent, and recovered by the following method. As the medium for CHO-hMelR7 and CHO-hMT2, MEM α containing 10% FBS and penicillin/streptomycin was used. 300 ng/mL of geneticin was added to the medium for CHO-hMT2. The medium was discarded, cells were washed twice with 200 mL of EDTA/PBS(-), 200 mL of EDTA/PBS(-) was further added, and the cells were stood still at room temperature for 20 min until they were released. The cells were recovered in four 50 mL tubes (Becton Dickinson, #352070), and centrifuged at 1,500 rpm for 10 min at 4° C. using a low speed cooling centrifuge (Hitachi, CF7D2). The supernatant was discarded, the pellets in the four tubes were suspended in 10 mL of PBS(-), and combined in one tube (Becton Dickinson, #352070). The mixture was further centrifuged at 1,500 rpm for 10 min at 4° C., and the obtained pellets were suspended in 20 mL of ice-cooled homogenizing buffer [10 mM NaHCO3, 5 mM EDTA, Protease inhibitor Complete (Roche), pH 7.4]. The cell suspension was homogenized 3 times using a polytron homogenizer at 20,000 rpm for 30 sec. The obtained homogenate was centrifuged (2,000 rpm, 10 min, 4° C.) using a low speed cooling centrifuge. The supernatant was recovered in an ultracentrifugation tube and ultracentrifuged (40,000 rpm, 60 min, 4° C.) using an ultracentrifuge (Beckman, […]). To the obtained pellets was added a suspending buffer [50 mM Tris-HCl, 1 mM EDTA, Protease inhibitor Complete (Roche), pH 7.4], and the pellets were suspended by pipetting. The protein concentration of this suspension was measured, diluted to 2 mg/mL to give cellular membrane fractions of CHO-hMelR7 and CHO-hMT2 cells. […] Protein was quantified using BCA protein assay kit (Pierce) with BSA as the standard. (4) Preparation of Membrane Fraction Suspension Immediately before use, the membrane fractions of CHO-hMelR7 and CHO-hMT2 cells of the above-mentioned (3) were diluted 20-fold with assay buffer (50 mM Tris-HCl, pH 7.7). (5) Preparation of 2-[^125I] […] (6) Binding Reaction The assay buffer (80 μL) of the above-mentioned (4) was added to each well of a 96-well plate (type 3363, Corning). […] (7) Measurement Using a cell harvester (PerkinElmer), the binding reaction mixture in each well of the 96-well plate was transferred to a treated (immersed in 50 mM Tris, pH 7.7 in advance) filter plate (UniFilter GF/C, PerkinElmer) and filtered.

| pIC50 [1] | melting point | Structure (SMILES) |
| --- | --- | --- |
| ≥ 7.00 | – | CC(=O)NCCC1CCc2cnc3c(c21)CCO3 (single isomer, unassigned) [Example 20, optically active N-[2-(1,6,7,8-tetrahydro-2H-cyclopenta[d]furo[2,3-b]pyridin-8-yl)ethyl]acetamide] |
| ≥ 7.00 | – | CCC(=O)NCCC1CCc2cnc3c(c21)CCO3 (single isomer, unassigned) [Example 23, optically active N-[2-(1,6,7,8-tetrahydro-2H-cyclopenta[d]furo[2,3-b]pyridin-8-yl)ethyl]propanamide] |
| ≥ 7.00 | 161 to 163 °C | CCC(=O)NCCc1c(-c2ccccc2)nn2ccc3occc3c12 [Example 2, N-[2-(2-phenylfuro[3,2-c]pyrazolo[1,5-a]pyridin-1-yl)ethyl]propanamide] |
| ≥ 7.00 | 174 to 175 °C | CC(=O)NCCc1cnn2ccc3c(c12)CCO3 [Example 3, N-[2-(8,9-dihydrofuro[3,2-c]pyrazolo[1,5-a]pyridin-1-yl)ethyl]acetamide] |
| ≥ 7.00 | 96 to 97 °C | CCC(=O)NCCc1cnn2ccc3c(c12)CCO3 [Example 4, N-[2-(8,9-dihydrofuro[3,2-c]pyrazolo[1,5-a]pyridin-1-yl)ethyl]propanamide] |
| ≥ 7.00 | 58 to 59 °C | CCCC(=O)NCCc1cnn2ccc3c(c12)CCO3 [Example 5, N-[2-(8,9-dihydrofuro[3,2-c]pyrazolo[1,5-a]pyridin-1-yl)ethyl]butanamide] |
| ≥ 7.00 | 169 to 170 °C | CCC(=O)NCCc1c(-c2ccccc2)nn2ccc3c(c12)CCO3 [Example 8, N-[2-(2-phenyl-8,9-dihydrofuro[3,2-c]pyrazolo[1,5-a]pyridin-1-yl)ethyl]propanamide] |
| ≥ 7.00 | 160 to 162 °C | CC(=O)NCCc1c(-c2ccc(F)cc2)nn2ccc3c(c12)CCO3 [Example 15, N-{2-[2-(4-fluorophenyl)-8,9-dihydrofuro[3,2-c]pyrazolo[1,5-a]pyridin-1-yl]ethyl}acetamide] |
| ≥ 7.00 | 170 to 171 °C | CCC(=O)NCCc1c(-c2ccc(F)cc2)nn2ccc3c(c12)CCO3 [Example 16, N-{2-[2-(4-fluorophenyl)-8,9-dihydrofuro[3,2-c]pyrazolo[1,5-a]pyridin-1-yl]ethyl}propanamide] |
| ≥ 7.00 | – | CC(=O)NCCc1c(-c2ccccc2)cn2ccc3c(c12)CCO3 [Example 17, N-[2-(8-phenyl-1,2-dihydrofuro[2,3-g]indolizin-9-yl)ethyl]acetamide] |
| ≥ 7.00 | – | CCC(=O)NCCC1CCc2cnc3c(c21)CCO3 (stereo not shown) [Example 22, N-[2-(1,6,7,8-tetrahydro-2H-cyclopenta[d]furo[2,3-b]pyridin-8-yl)ethyl]propanamide] |
| ≥ 7.00 | – | CCCC(=O)NCCC1CCc2cnc3c(c21)CCO3 (stereo not shown) [Example 25, N-[2-(1,6,7,8-tetrahydro-2H-cyclopenta[d]furo[2,3-b]pyridin-8-yl)ethyl]butanamide] |
| ≥ 7.00 | 111 to 112 °C | CCC(=O)NCCC1=CCc2cnc3c(c21)CCO3 [Example 29, N-[2-(1,6-dihydro-2H-cyclopenta[d]furo[2,3-b]pyridin-8-yl)ethyl]propanamide] |
| ≥ 7.00 | 164 to 166 °C | CC(=O)NCCC1=C(C(C)C)Cc2cnc3c(c21)CCO3 [Example 30, N-[2-(7-isopropyl-1,6-dihydro-2H-cyclopenta[d]furo[2,3-b]pyridin-8-yl)ethyl]acetamide] |
| ≥ 7.00 | 168 to 170 °C | CCC(=O)NCCC1=C(C(C)C)Cc2cnc3c(c21)CCO3 [Example 31, N-[2-(7-isopropyl-1,6-dihydro-2H-cyclopenta[d]furo[2,3-b]pyridin-8-yl)ethyl]propanamide] |
| ≥ 7.00 | 151 to 153 °C | CCc1nn2ccc3c(c2c1C(C)CNC(C)=O)CCO3 (stereo not shown) [Example 37, N-[2-(2-ethyl-8,9-dihydrofuro[3,2-c]pyrazolo[1,5-a]pyridin-1-yl)propyl]acetamide] |
| ≥ 7.00 | 173 to 175 °C | CCC(=O)NCC(C)c1c(CC)nn2ccc3c(c12)CCO3 (stereo not shown) [Example 38, N-[2-(2-ethyl-8,9-dihydrofuro[3,2-c]pyrazolo[1,5-a]pyridin-1-yl)propyl]propanamide] |
| ≥ 7.00 | 128 to 129 °C | CCc1nn2ccc3oc(C)cc3c2c1CCNC(C)=O [Example 39, N-[2-(2-ethyl-8-methylfuro[3,2-c]pyrazolo[1,5-a]pyridin-1-yl)ethyl]acetamide] |
